Data reported in the supplement of paper PMC10307832.

Experiments:
Test in all cases: relative viability (nuclei count vs DMSO), 5 days (fraction); higher = more cells survive
[1] = compound: COc1nc(N)nc2c1ncn2[C@@H]1O[C@H](CO)[C@@H](O)[C@@H]1O [Nelarabine] + COc1cccc2cc(-c3nc([C@H]4CC[C@H](C(=O)O)CC4)n4ncnc(N)c34)[nH]c12 [OSI-027] (partner 0.5 µM)
How it was run: (§1)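 Relative viability was taken as the ratio of nuclei in treated wells to nuclei in vehicle wells. Lung cancer cell lines in 1536-well plates received compounds by pin tool one day after seeding, either one drug alone or a fixed anchor-drug dose plus five library-drug doses (not always all listed) in √10 steps. Nuclei were counted on 4× images after 5 days of treatment, and values are medians of duplicate plates.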

[2] = compound: COc1nc(N)nc2c1ncn2[C@@H]1O[C@H](CO)[C@@H](O)[C@@H]1O [Nelarabine] + O=C(CCCCCCC(=O)Nc1ccccc1)NO [Vorinostat] (partner 1 µM)
How it was run: as §1

[3] = compound: COc1nc(N)nc2c1ncn2[C@@H]1O[C@H](CO)[C@@H](O)[C@@H]1O [Nelarabine] + Cc1nc(NC(=O)N2CCC[C@H]2C(N)=O)sc1-c1ccnc(C(C)(C)C(F)(F)F)c1 [Alpelisib] (partner 2 µM)
How it was run: as §1

[4] = compound: C=CCn1c(=O)c2cnc(Nc3ccc(N4CCN(C)CC4)cc3)nc2n1-c1cccc(C(C)(C)O)n1 [Adavosertib] + Cc1nc(Nc2ncc(C(=O)Nc3c(C)cccc3Cl)s2)cc(N2CCN(CCO)CC2)n1 [Dasatinib] (partner 0.075 µM)
How it was run: as §1

| Cell Line | relative viability ([1]; first compound 0.01 µM) | relative viability ([1]; first compound 0.03162 µM) | relative viability ([1]; first compound 0.1 µM) | relative viability ([1]; first compound 0.3162 µM) | relative viability ([1]; first compound 1 µM) | relative viability ([2]; first compound 0.01 µM) | relative viability ([2]; first compound 0.03162 µM) | relative viability ([2]; first compound 0.1 µM) | relative viability ([2]; first compound 0.3162 µM) | relative viability ([2]; first compound 1 µM) | relative viability ([3]; first compound 0.01 µM) | relative viability ([3]; first compound 0.03162 µM) | relative viability ([3]; first compound 0.1 µM) | relative viability ([3]; first compound 0.3162 µM) | relative viability ([3]; first compound 1 µM) | relative viability ([4]; first compound 0.01 µM) | relative viability ([4]; first compound 0.03162 µM) | relative viability ([4]; first compound 0.1 µM) | relative viability ([4]; first compound 0.3162 µM) |
| --- | --- | --- | --- | --- | --- | --- | --- | --- | --- | --- | --- | --- | --- | --- | --- | --- | --- | --- | --- |
| SW 1573 | 1.19 | 0.836 | 0.548 | 0.701 | 0.619 | 1.05 | 0.81 | 0.806 | 0.628 | 0.776 | 0.57 | 0.848 | 0.803 | 0.806 | 0.818 | 0.62 | 0.424 | 0.633 | 0.215 |
| NCI-H661 | 0.53 | 0.652 | 0.738 | 0.775 | 0.651 | 0.862 | 0.951 | 0.702 | 0.761 | 0.727 | 0.497 | 0.834 | 0.701 | 0.772 | 0.455 | 0.864 | 0.846 | 0.75 | 0.347 |
| PC-3 [JPC-3] | 0.854 | 0.604 | 0.73 | 0.744 | 0.685 | 0.927 | 0.924 | 0.918 | 0.957 | 0.709 | 1.14 | 0.993 | 1.06 | 1.05 | 0.986 | 0.994 | 0.937 | 0.933 | 1.05 |
| NCI-H358 | 1 | 0.816 | 0.767 | 1.09 | 0.989 | 0.852 | 1.02 | 0.663 | 0.791 | 0.617 | 0.906 | 0.839 | 0.62 | 0.845 | 0.857 | 0.159 | 0.144 | 0.149 | 0.139 |
| COR-L23 | 0.911 | 0.611 | 0.854 | 0.878 | 0.759 | 0.471 | 0.416 | 0.511 | 0.427 | 0.456 | 0.969 | 0.768 | 0.743 | 0.869 | 0.747 | 0.63 | 0.459 | 0.517 | 0.239 |
| ABC-1 | 0.535 | 0.48 | 0.38 | 0.44 | 0.477 | 1.24 | 1.51 | 1.22 | 1.07 | 0.929 | 1.06 | 1.3 | 1.24 | 0.937 | 1.08 | 0.551 | 0.594 | 0.677 | 0.563 |
| RERF-LC-KJ | 0.654 | 0.524 | 0.505 | 0.59 | 0.627 | 0.749 | 0.754 | 0.623 | 0.72 | 0.727 | 0.944 | 0.889 | 0.909 | 0.861 | 1.09 | 0.799 | 0.774 | 0.975 | 0.715 |
| A-427 | 0.489 | 0.42 | 0.373 | 0.443 | 0.52 | 0.856 | 0.93 | 0.895 | 0.854 | 0.844 | 0.851 | 1.06 | 1.11 | 1.07 | 1.05 | 0.715 | 0.709 | 0.805 | 0.425 |
| EKVX | 0.797 | 0.661 | 0.652 | 0.729 | 0.685 | 0.81 | 0.667 | 0.585 | 0.817 | 0.788 | 0.958 | 0.772 | 0.717 | 1.04 | 0.832 | 0.534 | 0.602 | 0.538 | 0.52 |
| LOU-NH91 | 0.738 | 0.785 | 0.657 | 0.765 | 0.748 | 0.993 | 0.814 | 0.889 | 0.931 | 0.873 | 0.74 | 0.704 | 0.661 | 0.706 | 0.738 | 0.539 | 0.565 | 0.622 | 0.513 |
| 201T | 0.85 | 0.638 | 0.762 | 1.15 | 0.85 | 1.2 | 1.04 | 0.999 | 1.03 | 0.979 | 1.06 | 1.02 | 0.968 | 1.03 | 1 | 0.544 | 0.524 | 0.568 | 0.463 |
| NCI-H1793 | 0.327 | 0.238 | 0.247 | 0.372 | 0.326 | 1.05 |  | 0.885 | 0.987 | 0.784 | 0.748 | 0.736 | 0.625 | 0.68 | 0.693 | 0.392 | 0.308 | 0.439 | 0.36 |
| LXF-289 | 0.899 | 0.97 | 0.966 | 0.958 | 0.736 | 0.84 | 0.698 | 0.674 | 0.807 | 0.662 | 1.19 | 1.05 | 1.01 | 1.11 | 1.05 | 0.309 | 0.22 | 0.213 | 0.243 |
| NCI-H23 | 0.686 | 0.504 | 0.512 | 0.738 | 0.62 | 0.737 | 0.604 | 0.548 | 0.615 | 0.584 | 0.637 | 0.719 | 0.606 | 0.686 | 0.693 | 0.737 | 0.838 | 0.788 | 0.412 |
| NCI-H1975 | 0.791 | 0.55 | 0.87 | 0.834 | 0.876 | 0.87 | 0.7 | 0.778 | 0.796 | 0.76 | 0.785 | 0.489 | 0.73 | 0.773 | 0.764 | 0.383 | 0.3 | 0.268 | 0.232 |
